For this experiment, the target named is T1, human EDG-5 (Homo sapiens, UniProt O95136).
T1 construct: expressed in transfected cells; host or cells: Chinese hamster ovary (CHO) cells
The experiment can be described thus: Evaluation of antagonistic activity for EDG-5 by monitoring the concentration change of intracellular calcium ion. It is filed as cell-based. The conditions noted are these: CHO cells overexpressing human EDG-5 gene, S1P 100 nM stimulation, Fura2, read-out: IC50 value (concentration showing an inhibition rate of 50%). The method, then: Evaluation of Antagonistic Activity for EDG-5 by Monitoring the Concentration Change of Intracellular Calcium Ion
Chinese hamster ovary (CHO) cells in which human EDG-5 gene was overexpressed were cultured in Ham's F12 medium (GIBCO BRL) containing 10% FBS (fetal bovine serum), penicillin/streptomycin. and blasticidin (5 μg/mL). Thus cultured cells were incubated in a Fura2 (5 μM)-AM solution [Ham's F12 medium containing FBS (10%), HEPES buffer (20 mM, pH7.4), and probenecid (2.5 mM)] at 37° C. for 60 minutes. Then the cells were washed once with a Hanks' solution (2.5 mM) containing probenecid and immersed into the Hanks' solution. A plate was set on a fluorescent drug screening system, and the concentration of intracellular calcium ion was measured for 30 seconds with no stimulation. A solution of a compound (dimethyl sulfoxide (DMSO) solution of 1 nM to 10 μM at the final concentration) to be tested was added. After lapse of 5 minutes, S1P (final concentration: 100 nM) was added, the concentration of intracellular calcium ion before and after the addition of SiP was measured every 3 seconds (excitation wave length: 340 nm and 380 nm; fluorescent wave length: 500 nm). […]
For orientation: Calcium flux is commonly read through the fluorescence of an indicator in the cells.

This note sets out measurements from patent US7511159B2, “Azetidine ring compounds and drugs comprising the same” (Ono Pharmaceutical Co., Ltd., priority 2003, dated 2009).

T1 sequence (O95136 whole entry): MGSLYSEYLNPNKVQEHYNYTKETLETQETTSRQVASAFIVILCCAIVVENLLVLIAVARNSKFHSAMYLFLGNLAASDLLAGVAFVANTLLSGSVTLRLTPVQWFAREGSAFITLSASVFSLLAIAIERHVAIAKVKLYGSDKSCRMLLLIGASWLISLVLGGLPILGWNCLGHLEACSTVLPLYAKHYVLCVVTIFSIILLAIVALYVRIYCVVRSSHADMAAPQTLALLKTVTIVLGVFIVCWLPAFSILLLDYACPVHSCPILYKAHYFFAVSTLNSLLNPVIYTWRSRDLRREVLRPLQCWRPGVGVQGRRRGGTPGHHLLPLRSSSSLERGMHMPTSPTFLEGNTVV

For the compound `CCN(c1ccccc1)C1CN(C(=O)Nc2cc(C(F)(F)F)cc(C(F)(F)F)c2)C1` [Example 3(18), N-[3,5-Bis(trifluoromethyl)phenyl]-3-[ethyl(phenyl)amino]azetidine-1-carboxamide], the IC50 is 950 nM.
